Results from patent US20210213097A1, “PEPTIDE INTERACTING WITH TOLL-LIKE RECEPTOR 2 AND THE COMPOSITION COMPRISING THE SAME” (NATIONAL TAIPEI UNIVERSITY OF TECHNOLOGY, priority 2020, published 2021).
“Also recorded” adds a separate entry of the source.

B1: Amuc_1100*: protein Amuc_1100 of Akkermansia muciniphila which does not include the transmembrane domain, SEQ ID NO.1 (protein, listed as Akkermansia muciniphila)
chain: IVNSKRSELDKKISIAAKEIKSANAAEITPSRSSNEELEKELNRYAKAVGSLETAYKPFLASSALVPTTPTAFQNELKTFRDSLISSCKKKNILITDTSSWLGFQVYSTQAPSVQAASTLGFELKAINSLVNKLAECGLSKFIKVYRPQLPIETPANNPEESDEADQAPWTPMPLEIAFQGDRESVLKAMNAITGMQDYLFTVNSIRIRNERMMPPPIANPAAAKPAAAQPATGAASLTPADEAAAPAAPAIQQVIKPYMGKEQVFVQVSLNLVHFNQPKAQEPSED

Experiments:
[1] = tested on: zebra fish; experiment: Zebra fish fed 6 times per day (autofat animal model), Example 5: body weight and glucose; type: in vivo; conditions: Example 5, normal diet 6 times per day; for level of glucose: Day 13, FIG. 8 lower panel; for body weight at end of experimentation (Day 13) compared to the original level and the GST group: FIG. 8
Protocol: Zebra fish was bred in 25° C. water (pH 6.5-7.5, conductivity 250-750 S·m^−1, NH3<0.25 ppm, NO2<0.25 ppm, NO3<0.5 ppm) and was fed with normal diet bid. (brine shrimp). Each group of experimentation comprises 10 zebra fish (n=10). The gavage feeding of Zebra fish follows the protocol disclosed in Collymore et al. (Journal of Visualized Experiment (2013)). During 13 days of experimentation, the zebra fish were fed once a day with the peptide fragments as disclosed herein in a 1× dose of 0.03 μg/day/fish. The weight of zebra fish was measured respectively on day 0, 1, 3, 6, 9, 12 and 13. In the present example, five groups of zebra fish were administered with the peptides as disclosed herein: The material and method employed in the present example is similar to that of Example 3, which is not repeated herein, except the following difference. In the present example, Zebra fish was bred and fed with normal diet (brine shrimp) 6 times per day and also with the peptide as disclosed herein once per day, to induce an autofat animal model. In the present example, five groups of zebra fish were administered with the peptides as disclosed herein: […]

[2] = tested on: zebra fish; experiment: Treatment of obesity in zebra fish, Example 3: body weight and glucose; type: in vivo; conditions: 0.03 μg/day/fish
Description: Zebra fish has been for a long time used as a model of obesity in many reports (Hasumura et al. Nutrition & Metabolism (2012); […] et al. Nutrition & Metabolism (2011); Oka et al. BMC Physiology (2010); Shimada et al. Nutrition & Metabolism (2015); Meguro et al. Scientific Reports (2019); Montalbano et al. Endocrine (2018); Yang et al. Cancer (2019)), which is also used herein as the subject of treatment of obesity with the peptides as disclosed herein. All peptides used in the present example were purified through CHT beads to remove endotoxin. LAL assay was further conducted and it was confirmed that the residue of endotoxin was under 0.25 EU/ml. Zebra fish was bred in 25° C. water (pH 6.5-7.5, conductivity 250-750 S·m^-1, NH3<0.25 ppm, NO2<0.25 ppm, NO3<0.5 ppm) and was fed with normal diet bid. (brine shrimp). Each group of experimentation comprises 10 zebra fish (n=10). The gavage feeding of Zebra fish follows the protocol disclosed in Collymore et al. (Journal of Visualized Experiment (2013)). During 13 days of experimentation, the zebra fish were fed once a day with the peptide fragments as disclosed herein in a 1× dose of 0.03 μg/day/fish. The weight of zebra fish was measured respectively on day 0, 1, 3, 6, 9, 12 and 13. In the present example, five groups of zebra fish were administered with the peptides as disclosed herein: […]

[3] = biological target: T1, human TLR2 (Homo sapiens, UniProt O60603); experiment: TLR induction screening in recombinant HEK-293 with NF-KB driven SEAP reporter; type: cell-based; conditions: final concentration 10 μg/ml; recombinant HEK-293 overexpressing human TLR; FIG. 1A
T1 construct: host or cells: recombinant HEK-293
T1 sequence (O60603 21-784): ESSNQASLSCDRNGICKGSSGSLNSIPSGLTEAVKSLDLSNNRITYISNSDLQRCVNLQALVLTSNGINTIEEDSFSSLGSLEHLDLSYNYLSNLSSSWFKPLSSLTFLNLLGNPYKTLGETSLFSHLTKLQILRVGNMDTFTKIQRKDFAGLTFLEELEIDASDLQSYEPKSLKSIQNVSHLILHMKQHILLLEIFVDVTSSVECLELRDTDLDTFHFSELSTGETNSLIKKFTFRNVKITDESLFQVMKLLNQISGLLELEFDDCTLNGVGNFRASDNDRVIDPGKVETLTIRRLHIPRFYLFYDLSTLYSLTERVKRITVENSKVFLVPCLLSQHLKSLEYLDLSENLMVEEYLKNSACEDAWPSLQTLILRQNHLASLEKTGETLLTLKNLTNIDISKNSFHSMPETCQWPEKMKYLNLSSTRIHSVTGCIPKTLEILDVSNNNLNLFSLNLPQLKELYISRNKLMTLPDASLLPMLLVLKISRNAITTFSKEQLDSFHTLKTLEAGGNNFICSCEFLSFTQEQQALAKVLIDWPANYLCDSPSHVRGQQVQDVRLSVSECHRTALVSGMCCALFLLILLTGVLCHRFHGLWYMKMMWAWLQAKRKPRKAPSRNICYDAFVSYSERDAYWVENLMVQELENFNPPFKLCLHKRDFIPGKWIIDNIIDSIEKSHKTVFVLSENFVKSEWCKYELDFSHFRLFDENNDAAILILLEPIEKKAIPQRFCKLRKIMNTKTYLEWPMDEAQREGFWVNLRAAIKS
Protocol: Human Embryonic Kidney Cells 293 (HEK-293) were treated with the peptide fragments as disclosed herein.
Samples and controls are tested in duplicate on recombinant HEK-293 cell lines. These cell lines functionally overexpress human TLR as well as a reporter gene which is a secreted alkaline phosphatase (SEAP). The production of this reporter gene is driven by a NF-KB inducible promoter. The level of activation is given as optical density values (OD).
Samples in 100 μg/ml were diluted to a final concentration of 10 μg/ml in the reaction volume. Sample and controls are tested in duplicated wells. BSA is used as negative control.
SEAP reporter is detected as OD value. OD value is subtracted by average non-induced (NI) value. The NI subtracted duplicates are averaged and presented in a histogram. The reagents and materials employed in the instant examples were provided by Invivogen.

[4] = tested on: gene expression of MPX, IL10, CD86, and IL4; experiment: RT-qPCR of gene expression in zebra fish treated with peptide, Example 3; type: in vivo; conditions: Day 13, FIG. 4
Protocol: Y axis (-ΔΔCT) represents the difference in the threshold cycle of amplification. **: P<0.01; ****: P<0.0001. Further, the RT(reversed-transcription)-qPCR was conducted to detect the quantity of gene expression of MPX, IL10, CD86, and IL4 in the zebra fish treated with AMSS according to the present example. […] (FIG. 4)

| Molecule | level of glucose [1] | body weight at end of experimentation (Day 13) compared to the original level and the GST group [1] | glucose detected in the serum of zebra fish ([2]; Day 13, FIG. 3 lower panel) | reduction in body weight at end of experimentation (Day 13) ([2]; Day 13 versus day 0, FIG. 3 upper panel) | change in body weight of zebra fish ([2]; gavage once a day, 13 days, normal diet bid, FIG. 2) | reduction of body weight in average ([2]; gavage once a day, end of experimentation, FIG. 2) | induction of TLR (SEAP reporter, OD) [3] | gene expression of IL4 [4] | gene expression of IL10 [4] | gene expression of MPX [4] |
| --- | --- | --- | --- | --- | --- | --- | --- | --- | --- | --- |
| AMS5-2: fragment of Amuc_1100*, sequence GLSKFIKVYRPQL (listed as Akkermansia muciniphila) | reduced | further reduced | – | – | – | – | – | – | – | – |
| AMS5: fragment of Amuc_1100*, sequence AINSLVNKLAECGLSKFIKVYRPQL (listed as Akkermansia muciniphila) | – | – | did not reduce | shows statistical significance | significant reduction in body weight | approximately 20 mg | strongly and specifically activated; also recorded: capable to activate TLR2; also recorded: shows the activity for induction of TLR | significantly reduced | significantly reduced | did not |
| B1 | reduced | further reduced | – | – | – | – | – | – | – | – |
